In patent US6541480B2, “1-aryl-1,8-naphthylidin-4-one derivative as type IV phosphodiesterase inhibitor” (Suntory Limited, priority 1997, dated 2003):
pIC50: −log10 of the molar value.

Key:
[1] = tested on: type IV phosphodiesterase; assay: Type IV phosphodiesterase inhibiting activity (3H-cAMP hydrolysis, PDE IV fraction from U937 cells); assay type: biochemical; conditions: PDE IV fraction from human U937 cells, 30° C., 30 minutes
Description: (1) Method of Measurement of Type IV Phosphodiesterase Inhibiting Activity
The following assay was used to evaluate the ability of the compound of the present invention to suppress type IV phosphodiesterase, according to Biochemical.
1) Type IV phosphodiesterase activity fractions were prepared as follows. Human histiocytic lymphoma cell line U937 was cultured in an RPMI1640 medium containing 10% fetal calf serum to obtain 10^9 cells of U937. The cells were recovered by centrifugation and suspended in 40 ml of buffer A (20 mM bis-tris, 5 mM 2-mercaptoethanol, 2 mM benzamidine, 2 mM EDTA, 0.1 mM 4-(2-aminoethyl)benzensulfonyl hydrochloride, 50 mM sodium acetate, pH=6.5). The cells were broken by a sonication and centrifuged (4° C., 10,000G, 10 minutes) to obtain a supernatent. This was filtered by a 0.45 μm filter to obtain the soluble fraction.
The soluble fraction obtained was applied into a 1×10 cm DEAE Sepharose column equalibrated with the buffer A. 120 ml of the buffer A containing a linear gradient solution of 0.05 to 1 M sodium acetate was used to separate the phosphodiesterase and recover 24 5-ml fractions. Each of the fractions was measured for the cAMP phosphodiesterase activity.
2) The test compound was reacted at a desired concentration in a reaction mixture containing 20 mM tris-HCl (pH 7.5), 1 mM MgCl2, 100 μM EDTA, 330 μg/ml calf serum albumin, 10 μg/ml 5′-nucleotidase, 0.4 μCi ^3H-cAMP ([…] cAMP) and the type IV phosphodiesterase stored solution at 30° C. for 30 minutes. QAE-Sephadex suspended in 10 mM of hepes-Na (pH-7.0) was added to the reaction mixture which was then allowed to stand for 5 minutes, then the supernatant was obtained, QAE-Sephadex was further added, to the supernatant, and was allowed to stand for 5 minutes, then the supernatant was obtained and measured for radioactivity.

[2] = tested on: TNF-α production by LPS stimulated mouse peritoneal macrophages; assay: TNF-α production inhibitory activity by LPS stimulated macrophages (ELISA); assay type: cell-based; conditions: LPS 10 μg/ml, 8 hours
Description: (1) Method of Measurement of TNF-α Production Inhibitory Activity by LPS Stimulated Macrophages
The following assay was used to evaluate the ability of the compound of the present invention to suppress TNF-α production by LPS stimulated macrophages according to Immuno pharmacol. 29, 121-127 (1995).
1) 6 to 10 week old female BALB/c mice were used, 2 ml portions of thioglycolate were intraperitoneally administered, and the abdominal cavities were washed by 10 ml of PBS after 4 days, whereby 1 to 2×10^7 peritoneal cells were obtained per mouse. These were suspended in a hemocyte solution (0.75% ammonium chloride, 17 mM tris-hydrochlorate buffer, pH7.2), centrifuged, then resuspended in an RPMI1640 medium including 10% fetal calf serum and seeded in a 96-well cell culture plate at a density of 1×10^5 cells/50 μl/well. Since these cells adhered strongly to the tissue culture plate and were positive in nonspecific esterase staining, they were used for the test as mouse peritoneal macrophages. Mouse peritoneal macrophages were precultured overnight at 37° C. in 5% CO2 for the experiment.
2) E. Coli (serum type 055:B5) derived LPS was dissolved in PBS in a concentration of 1 mg/ml, then sterilized by filtration. The test compound was dissolved in DMSO to make a 1000-fold concentration solution of the final concentration of use. 10 μl of the above LPS stock solution (final concentration 10 μg/ml) and 1 μl of the tested substance stock solution were added and mixed in 0.5 ml of RPMI1640 medium containing 10% fetal calf serum. This was added to the above cells at 50 μl/well and cultured for 8 hours. The cultured supernatant was recovered from each well and the TNF-α concentration was measured by the ELISA method (Cytoscreen® Immunoassay Kit Mouse TNF-α, BioSource International).

pIC50 [1]	pIC50 ([2]; Peritoneal macrophage)	pIC50 [2]	Structure (SMILES)
7.36	7.22		O=C(Nc1cccc2ncccc12)c1cn(-c2ccc(F)cc2)c2ncccc2c1=O [Example 113, 1-(4-Fluorophenyl)-N-(5-quinolyl)-1,4-dihydro [1,8]naphthylidin-4-one-3-carboxamide]
7.36	6.40		O=C(Nc1cccnc1)c1cn(-c2ccncc2)c2ncccc2c1=O [Example 138, N-(3-Pyridyl)-1-(4-pyridyl)-1,4-dihydro[1,8]naphthylidin-4-one-3-carboxamide]
7.00	6.70		O=C(Nc1ccc(O)cc1)c1cn(-c2ccc(F)cc2)c2ncccc2c1=O [Example 75, 1-(4-Fluorophenyl)-N-(4-hydroxyhenyl)-1,4-dihydro[1,8]naphthylidin-4-one-3-arboxamide]
7.44		8.30	Cc1cnccc1NC(=O)c1cn(-c2ccncc2)c2ncccc2c1=O [Example 140, N-(3-Methylpyridin-4-yl)-1-(4-pyridyl)-1,4-dihydro[1,8]naphthylidin-4-one-3-carboxamide]
6.12	6.00		O=C(Nc1ccncc1)c1cn(-c2ccccn2)c2ncccc2c1=O [Example 132, N-(4-Pyridyl)-1-(2-pyridyl)-1,4-dihydro[1,8]naphthylidin-4-one-3-carboxamide]
7.59		8.40	O=C(NCC1CC1)c1cn(-c2ccc(F)cc2)c2ncccc2c1=O [Example 56, N-cyclopropylmethyl-1-(4-fluorophenyl)-1,4-dihydro[1,8]naohthylidin-4-one-3-carboxamide]
6.89	6.30		O=C(Nc1ccncc1)c1cn(-c2cccnc2)c2ncccc2c1=O [Example 135, 1-(3-Pyridyl)-N-(4-pyridyl)-1,4-dihydro[1,8]naphthylidin-4-one-3-carboxamide]
7.25	6.52		O=C(Nc1ccncc1)c1cn(-c2cccc(CO)c2)c2ncccc2c1=O [Example 127, 1-(3-Hydroxymethylphenyl)-N-(4-pyridyl)-1,4-dihydro[1,8]naphthylidin-4-one-3-carboxamide]
6.74	7.00		COc1cccc(NC(=O)c2cn(-c3ccc(F)cc3)c3ncccc3c2=O)c1 [Example 77, 1-(4-Fluorophenyl)-N-(3-methoxyphenyl)-1,4-dihydro[1,8]naphthylidin-4-one-3-carboxamide]
7.26	6.52		O=C(Nc1cccc(CO)c1)c1cn(-c2ccc(F)cc2)c2ncccc2c1=O [Example 79, 1-(4-fluorophenyl)-N-(3-hydroxymethylphenyl)-1,4-dihydro[1,8]naohthylidin-4-one-3-carboxamide]
6.38	6.40		O=C(Nc1cccc(O)c1)c1cn(-c2ccc(F)cc2)c2ncccc2c1=O [Example 74, 1-(4-Fluorophenyl)-N-(3-hydroxythenyl)-1,4-dihydro[1,8]naphthylidin-4-one-3-carboxamide]
8.96	7.70		O=C(Nc1c(Cl)cncc1Cl)c1cn(-c2ccc(O)nc2)c2ncccc2c1=O [Example 147, N-(3,5-Dichloropyridin-4-yl)-1-(2-hydroxypyridin-5-yl)-1,4-dihydro[1,8]naphthylidin-4-one-3-carboxamide]
6.96	7.00		CC(=O)c1ccccc1NC(=O)c1cn(-c2ccc(F)cc2)c2ncccc2c1=O [Example 80, N-(2-acetophenyl)-1-(4-fluorophenyl)-1,4-dihydro[1,8]naphthylidin-4-one-3-carboxamide]
9.70	9.40		O=C(Nc1c(Cl)cncc1Cl)c1cn(-c2ccccc2)c2ncccc2c1=O [Example 118, N-(3,5-Dichloropyridin-4-yl)-1-phenyl-1,4-dihydro[1,8]naphthylidin-4-one-3-carboxamide]
8.19		8.40	O=C(Nc1c(Cl)cncc1Cl)c1cn(-c2ccccn2)c2ncccc2c1=O [Example 133]
7.72	9.52		Cc1cnccc1NC(=O)c1cn(-c2ccc(F)cc2)c2ncccc2c1=O [Example 104, 1-(4-Fluorophenyl)-N-(3-methylpyridin-4-yl)-1,4-dihydro[1,8]naphthylidin-4-one-3-carboxamide]
6.40	6.40		O=C(Nc1cnccn1)c1cn(-c2ccc(F)cc2)c2ncccc2c1=O [Example 109, 1-(4-Fluorophenyl)-N-pyrazinyl-1,4-dihydro[1,8]naphthylidin-4-one-3-carboxamide]
5.85	6.40		NC(=O)c1cn(-c2ccc(F)cc2)c2ncccc2c1=O [Example 51, 1-(4-Fluorophenyl)-1,4-dihydro[1,8]naphthylidin-4-one-3-carboxamide]
6.57	6.22		O=C(NCCc1ccccc1)c1cn(-c2ccc(F)cc2)c2ncccc2c1=O [Example 65, 1-(4-Fluorophenyl)-N-(2-phenylethyl)-1,4-dihydro[1,8]naphthylidin-4-one-3-carboxamide]
6.09	6.00		O=C(Nc1ccccc1O)c1cn(-c2ccc(F)cc2)c2ncccc2c1=O [Example 73, 1-(4-Fluorophenyl)-N-(2-hydroxyphenuyl)-1,4-dihydro[1,8]naphthylidin-4-one-3-carboxamide]
6.80	6.00		O=C(Nc1ccc(F)cc1)c1cn(-c2ccc(F)cc2)c2ncccc2c1=O [Example 98, 1,N-bis-(4-fluorophenyl)-1,4-dihydro[1,8]naphthylidin-4-one-3-carboxamide]
7.28	7.00		Nc1cccc(NC(=O)c2cn(-c3ccc(F)cc3)c3ncccc3c2=O)c1 [Example 91, N-(3-aminophenyl)-1-(4-fluorophenyl)-1,4-dihydro[1,8]naphthylidin-4-one-3-carboxamide]
6.92	7.00		O=C(NCc1ccncc1)c1cn(-c2ccc(F)cc2)c2ncccc2c1=O [Example 64, 1-(4-Fluorophenyl)-N-(4-pyridyl)methyl-1,4-dihydro[1,8]naphthylidin-4-one-3-carbdxamide]
6.46	6.30		O=C(Nc1cccc([N+](=O)[O-])c1)c1cn(-c2ccc(F)cc2)c2ncccc2c1=O [Example 94, 1-(4-Fluorophenyl)-N-(3-nitrophenyl)-1,4-dihydro[1,8]naphthylidin-4-one-3-carboxamide]
7.14	6.70		NC(=O)c1cccc(NC(=O)c2cn(-c3ccc(F)cc3)c3ncccc3c2=O)c1 [Example 87, N-[3-(aminocarbonyl)phenyl]-1-(4-fluorophenyl)-1,4-dihydro[1,8]naphthylidin-4-one-3-carboxamide]
6.96	6.30		CC(=O)c1cccc(NC(=O)c2cn(-c3ccc(F)cc3)c3ncccc3c2=O)c1 [Example 81, N-(3-acetophenyl)-1-(4-fluorophenyl)-1,4-dihydro[1,8]naphthylidin-4-one-3-carboxamide]
6.60		6.15	O=C(NCCc1ccncc1)c1cn(-c2ccccc2)c2ncccc2c1=O [Example 119, 1-Phenyl-N-[2-(4-pyridyl)ethyl]-1,4-dihydro[1,8]naphthylidin-4-one-3-carboxamide]
6.68	7.00		O=C(Nc1cccc2cnccc12)c1cn(-c2ccc(F)cc2)c2ncccc2c1=O [Example 114]
7.46	7.00		C=CCNC(=O)c1cn(-c2ccc(F)cc2)c2ncccc2c1=O [Example 54, N-allyl-1-(4-fluorophenyl)-1,4-dihydro[1,8]naphthylidin-4-one-3-carboxamide]
